From article PMC12281475, “Mediator Kinase Inhibitor Selectivity and Activity in Colorectal Cancer” (ACS Chemical Biology, 2025)

Columns and labels:
Assay type in all cases: biochemical
[1] = target: T1, CDK6_CycD1 (Homo sapiens, UniProt Q00534); assay: Radiometric protein kinase assay (33PanQinase), CDK6_CycD1; settings: slope of the IC50 fit
T1 construct: purchased Reaction Biology

[2] = target: T2, CDK4_CycD3 (Homo sapiens, UniProt P11802); assay: Radiometric protein kinase assay (33PanQinase), CDK4_CycD3; settings: slope of the IC50 fit
T2 construct: purchased Reaction Biology

[3] = target: T3, CDK15_CycA2 (Homo sapiens, UniProt Q96Q40); assay: Radiometric protein kinase assay (33PanQinase), CDK15_CycA2
T3 construct: purchased Reaction Biology

[4] = target: CDK20_CycH (Homo sapiens, UniProt Q8IZL9); assay: Radiometric protein kinase assay (33PanQinase), CDK20_CycH
[5] = target: T4, CDK9_CycK (Homo sapiens, UniProt P50750); assay: Radiometric protein kinase assay (33PanQinase), CDK9_CycK
T4 construct: purchased Reaction Biology

[6] = target: T5, CDK2_CycA2 (Homo sapiens, UniProt P24941); assay: Radiometric protein kinase assay (33PanQinase), CDK2_CycA2
T5 construct: purchased Reaction Biology

[7] = target: CDK17_p35NCK (Homo sapiens, UniProt Q00537); assay: Radiometric protein kinase assay (33PanQinase), CDK17_p35NCK; settings: slope of the IC50 fit
[8] = target: T6, CDK13_CycK (Homo sapiens, UniProt Q14004); assay: Radiometric protein kinase assay (33PanQinase), CDK13_CycK
T6 construct: purchased Reaction Biology

[9] = target: T7, CDK1_CycA2 (Homo sapiens, UniProt P06493); assay: Radiometric protein kinase assay (33PanQinase), CDK1_CycA2
T7 construct: purchased Reaction Biology

[10] = target: T8, CDK4_CycD1 (Homo sapiens, UniProt P11802); assay: Radiometric protein kinase assay (33PanQinase), CDK4_CycD1; settings: slope of the IC50 fit
T8 construct: purchased Reaction Biology

[11] = target: T9, CDK6_CycD3 (Homo sapiens, UniProt Q00534); assay: Radiometric protein kinase assay (33PanQinase), CDK6_CycD3; settings: slope of the IC50 fit
T9 construct: purchased Reaction Biology

[12] = target: T10, CDK5_p25NCK (Homo sapiens, UniProt Q00535); assay: Radiometric protein kinase assay (33PanQinase), CDK5_p25NCK
T10 construct: purchased Reaction Biology

[13] = target: T11, CDK3_CycC (Homo sapiens, UniProt Q00526); assay: Radiometric protein kinase assay (33PanQinase), CDK3_CycC
T11 construct: purchased Reaction Biology

[14] = target: T12, CDK4_CycD2 (Homo sapiens, UniProt P11802); assay: Radiometric protein kinase assay (33PanQinase), CDK4_CycD2; settings: slope of the IC50 fit
T12 construct: purchased Reaction Biology

[15] = target: T13, CDK2_CycD1 (Homo sapiens, UniProt P24941); assay: Radiometric protein kinase assay (33PanQinase), CDK2_CycD1; settings: slope of the IC50 fit
T13 construct: purchased Reaction Biology

[16] = target: T14, CDK9_CycT1 (Homo sapiens, UniProt P50750); assay: Radiometric protein kinase assay (33PanQinase), CDK9_CycT1
T14 construct: purchased Reaction Biology

[17] = target: T15, CDK8_CycC (Homo sapiens, UniProt P49336); assay: Radiometric protein kinase assay (33PanQinase), CDK8_CycC
T15 construct: purchased Reaction Biology

[18] = target: T16, CDK19_CycC (Homo sapiens, UniProt Q9BWU1); assay: Radiometric protein kinase assay (33PanQinase), CDK19_CycC
T16 construct: purchased Reaction Biology

[19] = target: T17, CDK12_CycK (Homo sapiens, UniProt Q9NYV4); assay: Radiometric protein kinase assay (33PanQinase), CDK12_CycK
T17 construct: purchased Reaction Biology

[20] = target: T18, CDK5_p35NCK (Homo sapiens, UniProt Q00535); assay: Radiometric protein kinase assay (33PanQinase), CDK5_p35NCK
T18 construct: purchased Reaction Biology

[21] = target: CDK10_CycQ (Homo sapiens, UniProt Q15131); assay: Radiometric protein kinase assay (33PanQinase), CDK10_CycQ; settings: slope of the IC50 fit
[22] = target: T19, CDK6_CycD2 (Homo sapiens, UniProt Q00534); assay: Radiometric protein kinase assay (33PanQinase), CDK6_CycD2; settings: slope of the IC50 fit
T19 construct: purchased Reaction Biology

[23] = target: CDK11B 357-795_CycK (Homo sapiens, UniProt P21127); assay: Radiometric protein kinase assay (33PanQinase), CDK11B 357-795_CycK; settings: slope of the IC50 fit
[24] = target: T20, CDK2_CycE1 (Homo sapiens, UniProt P24941); assay: Radiometric protein kinase assay (33PanQinase), CDK2_CycE1
T20 construct: purchased Reaction Biology

[25] = target: T21, CDK3_CycE1 (Homo sapiens, UniProt Q00526); assay: Radiometric protein kinase assay (33PanQinase), CDK3_CycE1; settings: slope of the IC50 fit
T21 construct: purchased Reaction Biology

[26] = target: T22, CDK1_CycE1 (Homo sapiens, UniProt P06493); assay: Radiometric protein kinase assay (33PanQinase), CDK1_CycE1
T22 construct: purchased Reaction Biology

[27] = target: T23, CDK7_CycH_MAT1 (Homo sapiens, UniProt P50613); assay: Radiometric protein kinase assay (33PanQinase), CDK7_CycH_MAT1; settings: slope of the IC50 fit
T23 construct: purchased Reaction Biology

[28] = target: T24, CDK1_CycB1 (Homo sapiens, UniProt P06493); assay: Radiometric protein kinase assay (33PanQinase), CDK1_CycB1
T24 construct: purchased Reaction Biology

[29] = target: CDK20_CycT1 (Homo sapiens, UniProt Q8IZL9); assay: Radiometric protein kinase assay (33PanQinase), CDK20_CycT1
[30] = target: T25, CDK16_CycY (Homo sapiens, UniProt Q00536); assay: Radiometric protein kinase assay (33PanQinase), CDK16_CycY; settings: slope of the IC50 fit
T25 construct: purchased Reaction Biology

[31] = target: CDK14_CycY (Homo sapiens, UniProt O94921); assay: Radiometric protein kinase assay (33PanQinase), CDK14_CycY; settings: slope of the IC50 fit
[32] = target: CDK18_CycY (Homo sapiens, UniProt Q07002); assay: Radiometric protein kinase assay (33PanQinase), CDK18_CycY
[33] = highest assay concentration 1.00E-05 M
[34] = highest assay concentration 1.00E-05 M, read-out: IC50

T3 sequence (Q96Q40 whole entry): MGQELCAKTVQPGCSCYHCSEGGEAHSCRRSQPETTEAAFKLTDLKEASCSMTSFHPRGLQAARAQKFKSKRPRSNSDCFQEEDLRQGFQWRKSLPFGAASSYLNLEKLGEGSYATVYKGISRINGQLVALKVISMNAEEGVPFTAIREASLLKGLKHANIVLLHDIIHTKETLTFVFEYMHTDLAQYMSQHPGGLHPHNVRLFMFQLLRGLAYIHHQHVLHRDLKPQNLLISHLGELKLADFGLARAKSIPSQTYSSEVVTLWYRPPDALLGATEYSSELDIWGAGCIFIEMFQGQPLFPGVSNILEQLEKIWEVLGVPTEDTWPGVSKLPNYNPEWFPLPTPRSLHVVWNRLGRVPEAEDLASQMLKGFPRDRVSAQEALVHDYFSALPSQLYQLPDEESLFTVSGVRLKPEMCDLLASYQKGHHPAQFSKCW
T10 sequence (Q00535 whole entry): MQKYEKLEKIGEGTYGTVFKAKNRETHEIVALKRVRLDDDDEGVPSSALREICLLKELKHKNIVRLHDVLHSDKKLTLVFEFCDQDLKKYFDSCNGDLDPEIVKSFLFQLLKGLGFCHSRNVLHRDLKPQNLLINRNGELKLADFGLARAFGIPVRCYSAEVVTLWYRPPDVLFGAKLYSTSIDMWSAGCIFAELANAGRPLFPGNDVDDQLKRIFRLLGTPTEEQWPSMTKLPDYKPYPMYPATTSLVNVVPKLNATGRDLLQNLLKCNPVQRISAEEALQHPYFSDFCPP
T10 sequence (Q15078 99-307 partner limits assumed): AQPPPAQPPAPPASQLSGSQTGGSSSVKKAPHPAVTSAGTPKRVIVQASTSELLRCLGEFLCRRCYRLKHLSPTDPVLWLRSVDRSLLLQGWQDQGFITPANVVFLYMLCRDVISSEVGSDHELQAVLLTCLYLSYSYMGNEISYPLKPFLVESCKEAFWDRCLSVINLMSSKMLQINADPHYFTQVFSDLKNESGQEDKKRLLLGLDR
T18 sequence (Q00535 whole entry): as the sequence (Q00535 whole entry) above
T18 sequence (Q15078 whole entry partner): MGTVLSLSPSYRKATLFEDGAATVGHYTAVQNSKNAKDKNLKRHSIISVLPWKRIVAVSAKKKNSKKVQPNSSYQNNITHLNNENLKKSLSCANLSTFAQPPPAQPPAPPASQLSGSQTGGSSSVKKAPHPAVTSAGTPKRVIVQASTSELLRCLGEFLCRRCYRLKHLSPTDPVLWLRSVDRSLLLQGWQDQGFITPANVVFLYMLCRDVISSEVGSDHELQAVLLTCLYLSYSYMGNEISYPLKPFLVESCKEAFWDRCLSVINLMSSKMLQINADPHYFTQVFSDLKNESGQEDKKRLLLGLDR
Sequence of CDK18_CycY (Q07002 whole entry): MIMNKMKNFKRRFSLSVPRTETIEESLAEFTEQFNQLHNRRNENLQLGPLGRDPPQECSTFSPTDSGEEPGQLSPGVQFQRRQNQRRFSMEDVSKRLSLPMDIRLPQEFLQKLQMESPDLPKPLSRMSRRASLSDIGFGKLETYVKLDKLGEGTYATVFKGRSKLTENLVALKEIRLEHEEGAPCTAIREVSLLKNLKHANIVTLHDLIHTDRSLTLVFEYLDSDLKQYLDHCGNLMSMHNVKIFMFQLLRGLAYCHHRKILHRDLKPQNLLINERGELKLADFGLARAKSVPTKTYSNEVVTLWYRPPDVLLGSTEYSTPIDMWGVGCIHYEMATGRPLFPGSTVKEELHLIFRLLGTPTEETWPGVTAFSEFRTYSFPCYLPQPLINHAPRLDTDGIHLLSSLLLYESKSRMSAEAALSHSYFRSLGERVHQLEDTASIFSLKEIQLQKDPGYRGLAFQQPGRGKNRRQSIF
Sequence of CDK18_CycY (Q8ND76 whole entry partner): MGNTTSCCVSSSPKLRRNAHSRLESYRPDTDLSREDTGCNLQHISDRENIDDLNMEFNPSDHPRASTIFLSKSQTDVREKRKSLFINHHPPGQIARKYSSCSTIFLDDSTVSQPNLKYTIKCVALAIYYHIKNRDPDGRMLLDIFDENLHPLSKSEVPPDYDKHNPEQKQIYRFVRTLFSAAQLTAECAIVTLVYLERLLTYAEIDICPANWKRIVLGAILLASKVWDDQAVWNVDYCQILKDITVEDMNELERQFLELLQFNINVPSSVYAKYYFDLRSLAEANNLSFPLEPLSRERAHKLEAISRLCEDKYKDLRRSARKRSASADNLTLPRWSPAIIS
T6 sequence (Q14004 whole entry): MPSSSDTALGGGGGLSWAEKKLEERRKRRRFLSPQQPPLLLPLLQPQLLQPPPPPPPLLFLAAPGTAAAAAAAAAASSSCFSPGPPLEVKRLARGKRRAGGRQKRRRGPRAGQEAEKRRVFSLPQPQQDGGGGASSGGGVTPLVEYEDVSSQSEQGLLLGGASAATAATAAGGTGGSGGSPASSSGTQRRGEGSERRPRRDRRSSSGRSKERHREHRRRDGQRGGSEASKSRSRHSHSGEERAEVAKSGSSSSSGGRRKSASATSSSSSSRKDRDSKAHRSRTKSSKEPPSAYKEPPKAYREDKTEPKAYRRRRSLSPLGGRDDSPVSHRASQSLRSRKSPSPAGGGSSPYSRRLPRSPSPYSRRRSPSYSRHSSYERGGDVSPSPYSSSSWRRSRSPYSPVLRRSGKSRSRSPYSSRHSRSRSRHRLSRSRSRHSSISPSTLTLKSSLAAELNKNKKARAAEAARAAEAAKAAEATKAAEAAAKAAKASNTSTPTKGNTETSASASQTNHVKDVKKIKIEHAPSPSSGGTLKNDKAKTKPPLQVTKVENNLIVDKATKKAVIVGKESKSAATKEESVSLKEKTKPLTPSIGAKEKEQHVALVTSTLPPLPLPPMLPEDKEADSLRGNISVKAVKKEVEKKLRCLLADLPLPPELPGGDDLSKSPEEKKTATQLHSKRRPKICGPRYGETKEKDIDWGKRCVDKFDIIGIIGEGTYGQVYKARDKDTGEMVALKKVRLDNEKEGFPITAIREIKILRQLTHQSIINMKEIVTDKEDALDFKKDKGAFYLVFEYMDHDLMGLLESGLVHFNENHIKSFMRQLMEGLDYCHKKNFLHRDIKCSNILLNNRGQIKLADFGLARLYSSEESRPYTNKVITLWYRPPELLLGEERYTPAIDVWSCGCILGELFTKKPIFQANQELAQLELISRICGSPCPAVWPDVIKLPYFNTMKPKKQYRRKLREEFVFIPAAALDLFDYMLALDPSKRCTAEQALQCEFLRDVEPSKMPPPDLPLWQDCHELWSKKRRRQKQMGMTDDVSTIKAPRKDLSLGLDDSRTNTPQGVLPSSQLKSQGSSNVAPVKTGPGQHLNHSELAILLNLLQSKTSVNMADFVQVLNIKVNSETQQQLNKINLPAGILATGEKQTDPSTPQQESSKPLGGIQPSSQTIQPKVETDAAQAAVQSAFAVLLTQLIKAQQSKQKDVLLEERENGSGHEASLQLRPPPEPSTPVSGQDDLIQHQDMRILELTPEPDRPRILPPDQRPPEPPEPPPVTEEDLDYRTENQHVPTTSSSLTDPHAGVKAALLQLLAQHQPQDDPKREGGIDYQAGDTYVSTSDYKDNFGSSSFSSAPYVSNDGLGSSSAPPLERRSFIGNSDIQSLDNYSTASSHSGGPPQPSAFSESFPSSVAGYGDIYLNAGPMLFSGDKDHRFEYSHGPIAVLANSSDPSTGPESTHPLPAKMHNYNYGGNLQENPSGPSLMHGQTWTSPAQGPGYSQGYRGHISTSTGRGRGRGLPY
T6 sequence (O75909 whole entry partner): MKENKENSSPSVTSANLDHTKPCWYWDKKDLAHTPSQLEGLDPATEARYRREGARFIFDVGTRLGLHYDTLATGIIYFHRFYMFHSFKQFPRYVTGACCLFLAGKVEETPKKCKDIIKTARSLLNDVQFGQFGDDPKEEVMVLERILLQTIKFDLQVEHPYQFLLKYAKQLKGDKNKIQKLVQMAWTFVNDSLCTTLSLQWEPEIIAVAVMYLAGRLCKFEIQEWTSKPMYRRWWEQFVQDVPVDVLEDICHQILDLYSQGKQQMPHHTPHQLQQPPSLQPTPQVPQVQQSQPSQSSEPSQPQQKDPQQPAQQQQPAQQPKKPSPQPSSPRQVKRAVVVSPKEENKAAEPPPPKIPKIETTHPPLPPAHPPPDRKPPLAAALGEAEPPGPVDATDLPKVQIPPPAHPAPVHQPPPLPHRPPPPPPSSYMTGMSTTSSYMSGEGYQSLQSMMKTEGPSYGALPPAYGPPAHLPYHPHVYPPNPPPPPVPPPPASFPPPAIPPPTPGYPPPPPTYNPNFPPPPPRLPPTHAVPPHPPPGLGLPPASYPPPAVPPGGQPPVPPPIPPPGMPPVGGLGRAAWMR
Sequence of CDK20_CycH (Q8IZL9 whole entry): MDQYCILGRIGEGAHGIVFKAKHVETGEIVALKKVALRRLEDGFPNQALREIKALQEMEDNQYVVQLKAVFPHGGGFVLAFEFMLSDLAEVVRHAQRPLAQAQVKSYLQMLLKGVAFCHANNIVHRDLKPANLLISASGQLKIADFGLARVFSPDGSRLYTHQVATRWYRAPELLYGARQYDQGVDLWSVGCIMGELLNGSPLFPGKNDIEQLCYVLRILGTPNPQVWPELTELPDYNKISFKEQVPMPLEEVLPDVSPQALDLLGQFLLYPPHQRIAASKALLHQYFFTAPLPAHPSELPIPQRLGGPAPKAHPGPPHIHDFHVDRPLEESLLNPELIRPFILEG
Sequence of CDK20_CycT1 (Q8IZL9 whole entry): as above

Structure (SMILES): Cc1c(Br)c(Br)c2c3c1nc(N1CCNCC1)n3CCC2.Cl [SEL120-34A, reference compound]
- Hill Slope [1]: -0.06
- Hill Slope [2]: -0.78
- IC50 [3, 33]: 7490 nM
- Hill Slope ([3]; slope of the IC50 fit): -0.86
- IC50 [4, 33]: 1130 nM
- Hill Slope ([4]; slope of the IC50 fit): -0.52
- IC50 [5, 33]: 597 nM
- Hill Slope ([5]; slope of the IC50 fit): -1.14
- IC50 [6, 34]: 2220 nM
- Hill Slope ([6]; slope of the IC50 fit): -1.14
- Hill Slope [7]: -0.56
- IC50 [8, 34]: 292 nM
- Hill Slope ([8]; slope of the IC50 fit): -0.51
- IC50 [9, 34]: 7100 nM
- Hill Slope ([9]; slope of the IC50 fit): -0.95
- Hill Slope [10]: -0.69
- Hill Slope [11]: -0.38
- IC50 [12, 33]: 7390 nM
- Hill Slope ([12]; slope of the IC50 fit): -0.75
- IC50 [13, 34]: 4820 nM
- Hill Slope ([13]; slope of the IC50 fit): -0.87
- Hill Slope [14]: -0.75
- Hill Slope [15]: -0.7
- IC50 [16, 33]: 957 nM
- Hill Slope ([16]; slope of the IC50 fit): -1.23
- IC50 [17, 34]: 193 nM
- Hill Slope ([17]; slope of the IC50 fit): -0.81
- IC50 [18, 34]: 437 nM
- Hill Slope ([18]; slope of the IC50 fit): -0.83
- IC50 [19, 33]: 702 nM
- Hill Slope ([19]; slope of the IC50 fit): -0.91
- IC50 [20, 33]: 4550 nM
- Hill Slope ([20]; slope of the IC50 fit): -0.92
- Hill Slope [21]: -0.83
- Hill Slope [22]: -0.78
- Hill Slope [23]: -0.45
- IC50 [24, 34]: 2700 nM
- Hill Slope ([24]; slope of the IC50 fit): -1.13
- Hill Slope [25]: -0.48
- IC50 [26, 34]: 5000 nM
- Hill Slope ([26]; slope of the IC50 fit): -1.01
- Hill Slope [27]: -0.9
- IC50 [28, 33]: 7620 nM
- Hill Slope ([28]; slope of the IC50 fit): -0.55
- IC50 [29, 33]: 1120 nM
- Hill Slope ([29]; slope of the IC50 fit): -0.7
- Hill Slope [30]: -0.52
- Hill Slope [31]: -0.83
- IC50 [32, 33]: 7840 nM
- Hill Slope ([32]; slope of the IC50 fit): -0.81
